Test results taken from PubChem BioAssay (NCI).
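Grown in 96-well plates, cells were treated for 48 hours with each compound at five concentrations. Insufficient inhibition: endpoint recorded as highest concentration tested. Definition used: TGI = concentration required for complete inhibition of growth.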 Where a SMILES comes first, the peptide text is derived from it. The star is where a group is joined. Boc = CC(C)(C)OC(=O)*; OBn = c1ccc(CO*)cc1

How the values were obtained:
Assay in all cases: NCI-60 cell line screen, 48 h
BT-549 breast = system: BT-549 breast
EKVX NSCLC = system: EKVX NSCLC
HCT-15 colon = system: HCT-15 colon
HS 578T breast = system: HS 578T breast
HT29 colon = system: HT29 colon
MDA-MB-231 breast = system: MDA-MB-231 breast
MDA-N = system: MDA-N
NCI/ADR-RES ovarian = system: NCI/ADR-RES ovarian
OVCAR-4 ovarian = system: OVCAR-4 ovarian
OVCAR-5 ovarian = system: OVCAR-5 ovarian
RPMI-8226 leukemia = system: RPMI-8226 leukemia
SF-295 CNS = system: SF-295 CNS
SK-MEL-28 melanoma = system: SK-MEL-28 melanoma
SN12C renal = system: SN12C renal
SNB-19 CNS = system: SNB-19 CNS
TK-10 renal = system: TK-10 renal
DU-145 prostate = system: DU-145 prostate
HCC-2998 colon = system: HCC-2998 colon
M14 melanoma = system: M14 melanoma
SR leukemia = system: SR leukemia

## COC(=O)Nc1nc2ccc(S(=O)(=O)NC(CC(C)C)C(=O)OC)cc2[nH]1 (stereo not drawn)
BT-549 breast
  TGI: > 100 µM
EKVX NSCLC
  TGI: 89.8 µM
HCT-15 colon
  TGI: > 100 µM
HS 578T breast
  TGI: 3.47 µM
HT29 colon
  TGI: 8.06 µM
MDA-MB-231 breast
  TGI: > 100 µM
MDA-N
  TGI: 2.18 µM
NCI/ADR-RES ovarian
  TGI: 59.6 µM
OVCAR-4 ovarian
  TGI: > 100 µM
OVCAR-5 ovarian
  TGI: 95.1 µM
RPMI-8226 leukemia
  TGI: > 100 µM
SF-295 CNS
  TGI: 5.44 µM
SK-MEL-28 melanoma
  TGI: > 100 µM
SN12C renal
  TGI: > 100 µM
SNB-19 CNS
  TGI: 45 µM
TK-10 renal
  TGI: 31.9 µM

## CC(C)C(NC(=O)C(Cc1ccccc1)NC(=O)OC(C)(C)C)C(=O)NCC(=O)OCc1ccccc1 (stereo not drawn) (Boc-Phe-Val-Gly-OBn; configuration not given here)
DU-145 prostate
  TGI: 28.7 µM
EKVX NSCLC
  TGI: 37.9 µM
HCC-2998 colon
  TGI: 31.9 µM
HCT-15 colon
  TGI: 26.7 µM
HT29 colon
  TGI: 38.5 µM
M14 melanoma
  TGI: 36.5 µM
MDA-MB-231 breast
  TGI: 32.3 µM
MDA-N
  TGI: 33.5 µM
NCI/ADR-RES ovarian
  TGI: > 100 µM
OVCAR-4 ovarian
  TGI: 58.8 µM
OVCAR-5 ovarian
  TGI: 28.7 µM
RPMI-8226 leukemia
  TGI: 42.5 µM
SF-295 CNS
  TGI: 34.6 µM
SK-MEL-28 melanoma
  TGI: 30.5 µM
SN12C renal
  TGI: 34.5 µM
SNB-19 CNS
  TGI: 58.4 µM
TK-10 renal
  TGI: 27.1 µM

## OC1(CCc2ccccc2)COC(C(F)(F)F)(C(F)(F)F)C1 (stereo not drawn)
DU-145 prostate
  TGI: > 100 µM
EKVX NSCLC
  TGI: > 100 µM
HCC-2998 colon
  TGI: > 100 µM
HCT-15 colon
  TGI: > 100 µM
HS 578T breast
  TGI: > 100 µM
HT29 colon
  TGI: > 100 µM
M14 melanoma
  TGI: > 100 µM
MDA-MB-231 breast
  TGI: > 100 µM
MDA-N
  TGI: > 100 µM
NCI/ADR-RES ovarian
  TGI: > 100 µM
OVCAR-4 ovarian
  TGI: > 100 µM
OVCAR-5 ovarian
  TGI: > 100 µM
RPMI-8226 leukemia
  TGI: > 100 µM
SF-295 CNS
  TGI: > 100 µM
SK-MEL-28 melanoma
  TGI: > 100 µM
SN12C renal
  TGI: > 100 µM
SNB-19 CNS
  TGI: > 100 µM
SR leukemia
  TGI: > 100 µM
TK-10 renal
  TGI: > 100 µM

## O=C(Nc1ccc(Cl)cc1)C(=O)C(C(=O)c1ccccc1-c1ccccc1)C1OC(=O)c2ccccc21 (stereo not drawn)
EKVX NSCLC
  TGI: 37.9 µM
HCC-2998 colon
  TGI: 33.8 µM
HCT-15 colon
  TGI: 37.3 µM
HT29 colon
  TGI: 58.6 µM
M14 melanoma
  TGI: 42.4 µM
OVCAR-4 ovarian
  TGI: > 100 µM
OVCAR-5 ovarian
  TGI: 92.4 µM
RPMI-8226 leukemia
  TGI: > 100 µM
SF-295 CNS
  TGI: > 100 µM
SK-MEL-28 melanoma
  TGI: 36.6 µM
SN12C renal
  TGI: 62.4 µM
SNB-19 CNS
  TGI: 38.2 µM
SR leukemia
  TGI: 82.9 µM
TK-10 renal
  TGI: 57.3 µM

## CCOC(=O)NNC(=O)C1CSC(c2ccccc2)N1C(C)=O (stereo not drawn)
BT-549 breast
  TGI: > 100 µM
DU-145 prostate
  TGI: > 100 µM
EKVX NSCLC
  TGI: > 100 µM
HCC-2998 colon
  TGI: > 100 µM
HCT-15 colon
  TGI: > 100 µM
HS 578T breast
  TGI: > 100 µM
HT29 colon
  TGI: > 100 µM
M14 melanoma
  TGI: > 100 µM
MDA-MB-231 breast
  TGI: > 100 µM
NCI/ADR-RES ovarian
  TGI: > 100 µM
OVCAR-4 ovarian
  TGI: > 100 µM
OVCAR-5 ovarian
  TGI: > 100 µM
RPMI-8226 leukemia
  TGI: > 100 µM
SF-295 CNS
  TGI: > 100 µM
SN12C renal
  TGI: > 100 µM
SNB-19 CNS
  TGI: > 100 µM
TK-10 renal
  TGI: > 100 µM

## COC(=O)C(C)NP(=O)(N1CC1)N1CC1 (stereo not drawn)
EKVX NSCLC
  TGI: > 100 µM
HCC-2998 colon
  TGI: > 100 µM
HCT-15 colon
  TGI: > 100 µM
HT29 colon
  TGI: > 100 µM
M14 melanoma
  TGI: > 100 µM
OVCAR-4 ovarian
  TGI: > 100 µM
OVCAR-5 ovarian
  TGI: > 100 µM
RPMI-8226 leukemia
  TGI: > 100 µM
SF-295 CNS
  TGI: > 100 µM
SK-MEL-28 melanoma
  TGI: > 100 µM
SN12C renal
  TGI: > 100 µM
SNB-19 CNS
  TGI: > 100 µM
TK-10 renal
  TGI: > 100 µM

## CC12CCC3[C@@H](CC3(C)C)C(O)(CCC1=O)C2 (stereo partly drawn)
DU-145 prostate
  TGI: > 100 µM
EKVX NSCLC
  TGI: > 100 µM
HCC-2998 colon
  TGI: > 100 µM
HCT-15 colon
  TGI: > 100 µM
HS 578T breast
  TGI: > 100 µM
HT29 colon
  TGI: > 100 µM
M14 melanoma
  TGI: > 100 µM
MDA-MB-231 breast
  TGI: > 100 µM
MDA-N
  TGI: > 100 µM
NCI/ADR-RES ovarian
  TGI: > 100 µM
OVCAR-4 ovarian
  TGI: > 100 µM
OVCAR-5 ovarian
  TGI: > 100 µM
RPMI-8226 leukemia
  TGI: > 100 µM
SF-295 CNS
  TGI: > 100 µM
SK-MEL-28 melanoma
  TGI: > 100 µM
SN12C renal
  TGI: > 100 µM
SR leukemia
  TGI: > 100 µM
TK-10 renal
  TGI: > 100 µM

## COCC(N=CN1CCCc2ccccc2[C@@H]1CCCCl)C(C)(C)C (stereo partly drawn)
DU-145 prostate
  TGI: > 100 µM
EKVX NSCLC
  TGI: 88.9 µM
HCC-2998 colon
  TGI: 33.9 µM
HCT-15 colon
  TGI: > 100 µM
HS 578T breast
  TGI: 17.6 µM
HT29 colon
  TGI: 69.7 µM
M14 melanoma
  TGI: 18.3 µM
MDA-MB-231 breast
  TGI: 9.48 µM
MDA-N
  TGI: 68.2 µM
NCI/ADR-RES ovarian
  TGI: 3.19 µM
OVCAR-4 ovarian
  TGI: 36 µM
OVCAR-5 ovarian
  TGI: 49.5 µM
RPMI-8226 leukemia
  TGI: 8.95 µM
SF-295 CNS
  TGI: 35.1 µM
SK-MEL-28 melanoma
  TGI: > 100 µM
SN12C renal
  TGI: 59 µM
SNB-19 CNS
  TGI: 65.1 µM
SR leukemia
  TGI: 12.2 µM
TK-10 renal
  TGI: 28.8 µM

## Cc1cc([C@H](C#N)c2nc3ccccc3[nH]2)nc(Cl)n1
BT-549 breast
  TGI: > 100 µM
DU-145 prostate
  TGI: > 100 µM
EKVX NSCLC
  TGI: > 100 µM
HCC-2998 colon
  TGI: 42.8 µM
HCT-15 colon
  TGI: > 100 µM
HS 578T breast
  TGI: > 100 µM
HT29 colon
  TGI: > 100 µM
MDA-MB-231 breast
  TGI: > 100 µM
NCI/ADR-RES ovarian
  TGI: > 100 µM
OVCAR-4 ovarian
  TGI: > 100 µM
RPMI-8226 leukemia
  TGI: > 100 µM
SF-295 CNS
  TGI: > 100 µM
SK-MEL-28 melanoma
  TGI: > 100 µM
SN12C renal
  TGI: > 100 µM
SNB-19 CNS
  TGI: > 100 µM
SR leukemia
  TGI: > 100 µM
TK-10 renal
  TGI: > 100 µM

## CC(=O)O[C@@H]1CC[C@@]2(C)C(CC[C@H]3[C@@H]4CC[C@H]([C@H](C)CCc5nc6ccc(C)cc6[nH]5)[C@@]4(C)CC[C@@H]32)C1 (stereo partly drawn)
BT-549 breast
  TGI: > 100 µM
DU-145 prostate
  TGI: > 100 µM
EKVX NSCLC
  TGI: 53.3 µM
HCC-2998 colon
  TGI: > 100 µM
HCT-15 colon
  TGI: > 100 µM
HS 578T breast
  TGI: > 100 µM
HT29 colon
  TGI: 70.7 µM
M14 melanoma
  TGI: > 100 µM
MDA-MB-231 breast
  TGI: 55.3 µM
NCI/ADR-RES ovarian
  TGI: > 100 µM
OVCAR-4 ovarian
  TGI: > 100 µM
OVCAR-5 ovarian
  TGI: > 100 µM
RPMI-8226 leukemia
  TGI: 84.3 µM
SF-295 CNS
  TGI: > 100 µM
SK-MEL-28 melanoma
  TGI: > 100 µM
SN12C renal
  TGI: > 100 µM
SNB-19 CNS
  TGI: > 100 µM
TK-10 renal
  TGI: > 100 µM

## CC[C@](O)(CC(=O)O[C@H]1C(=O)O[C@@H]2C[C@H]3C(C)=CC(=O)[C@@H](O)[C@]3(C)[C@H]3[C@@]4(O)OC[C@]32[C@@H]1[C@@H](C)[C@H]4O)C(C)C
DU-145 prostate
  TGI: < 0.01 µM
EKVX NSCLC
  TGI: < 0.01 µM
HCC-2998 colon
  TGI: < 0.01 µM
HCT-15 colon
  TGI: < 0.0117 µM
HS 578T breast
  TGI: < 0.01 µM
HT29 colon
  TGI: < 0.01 µM
M14 melanoma
  TGI: < 0.01 µM
MDA-MB-231 breast
  TGI: < 0.0119 µM
MDA-N
  TGI: < 0.01 µM
NCI/ADR-RES ovarian
  TGI: 0.242 µM
OVCAR-4 ovarian
  TGI: < 0.0144 µM
OVCAR-5 ovarian
  TGI: < 0.01 µM
SF-295 CNS
  TGI: < 0.01 µM
SK-MEL-28 melanoma
  TGI: < 0.01 µM
SN12C renal
  TGI: < 0.01 µM
SNB-19 CNS
  TGI: < 0.01 µM
SR leukemia
  TGI: < 0.01 µM
TK-10 renal
  TGI: < 0.01 µM

## COC1CC(C)C(OC)C2=CC(=O)C=C(NC(=O)/C(C)=C/C=C\C(C)C(OC(N)=O)/C(C)=C\C(C)C1OC)C2=O (stereo not drawn)
DU-145 prostate
  TGI: 15.9 µM
EKVX NSCLC
  TGI: 23.1 µM
HCC-2998 colon
  TGI: 2.11 µM
HCT-15 colon
  TGI: 3.31 µM
M14 melanoma
  TGI: 12.2 µM
OVCAR-4 ovarian
  TGI: 2.48 µM
OVCAR-5 ovarian
  TGI: 17.8 µM
RPMI-8226 leukemia
  TGI: 4.39 µM
SF-295 CNS
  TGI: 13.4 µM
SK-MEL-28 melanoma
  TGI: 1.05 µM
SN12C renal
  TGI: 5.48 µM
SNB-19 CNS
  TGI: 18.1 µM
SR leukemia
  TGI: 0.729 µM
TK-10 renal
  TGI: 9.81 µM

## CCN(CC)c1cc2c3c(c1)CCCN3CCC2
DU-145 prostate
  TGI: > 10 µM
EKVX NSCLC
  TGI: > 10 µM
HCC-2998 colon
  TGI: > 10 µM
HCT-15 colon
  TGI: > 10 µM
HS 578T breast
  TGI: > 10 µM
HT29 colon
  TGI: > 10 µM
M14 melanoma
  TGI: > 10 µM
MDA-MB-231 breast
  TGI: > 10 µM
MDA-N
  TGI: > 10 µM
NCI/ADR-RES ovarian
  TGI: > 10 µM
OVCAR-4 ovarian
  TGI: > 10 µM
RPMI-8226 leukemia
  TGI: > 10 µM
SF-295 CNS
  TGI: > 10 µM
SK-MEL-28 melanoma
  TGI: > 10 µM
SN12C renal
  TGI: > 10 µM
SNB-19 CNS
  TGI: > 10 µM
SR leukemia
  TGI: > 10 µM
TK-10 renal
  TGI: > 10 µM
